The data set is described as follows: gradient 5% acetonitrile 3 min, to 50% in 2 min, to 85% in 15 min, held 3 min, 100 µL/min. As to conditions: column: Zorbax Extend-C18 2.1 x 50 mm; eluents: water / acetonitrile, 0.1% formic acid. In a few lines:
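In both positive and negative ionization mode, a quadrupole time-of-flight mass spectrometer coupled to HPLC analyzed pure standards run in mixtures of ~100 molecules. The Zorbax Extend-C18 column (2.1 × 50 mm, 1.8 μm) was operated at 100 μL/min with water and acetonitrile, each containing 0.1% formic acid. The dead volume was 40 μL and the dwell volume 900 μL. Retention time came from adduct peaks that were computationally picked and individually inspected by hand.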
For the molecule `CCCCN1CCN(C(=O)c2cc(NC(=O)C3CCC3)cc3nc(C)ccc23)CC1`, the RP-LC retention time stood at 551 s. The result for `COc1ccccc1-c1noc(Cn2c(=O)n(-c3ccccc3C)c(=O)c3sccc32)n1` reads 910 s; that for `CC(C)NC(=O)c1ccc(-c2nnc3ccc(NC(=O)C4CCC4)cn23)cc1`, 724 s. The result for `CCc1ccccc1NS(=O)(=O)c1cc(-c2cc(C(F)(F)F)on2)sc1C` reads 1210 s. On to `CCS(=O)(=O)N1N=C(c2cccs2)CC1c1ccc2nccnc2c1` (centres undefined), for which the RP-LC retention time stood at 724 s. The result for `COc1cccc(CNC(=O)CN2C(=O)CSc3cccn3-c3ccccc32)c1` reads 846 s; that for `O=C(Nc1cccn2c(C3CCC3)nnc12)c1cc2ccccc2[nH]1`, 818 s. Next, `COc1ccc(OC)c(-c2[nH]ncc2CN2CC(F)(F)C[C@H]2CN2CCCCCC2)c1`: 578 s; `Cc1cc(-c2nnc(-c3ccco3)o2)c(C)n1CC(=O)Nc1ccc(F)c(Cl)c1`: 941 s; `CC(C)(C)c1csc(-c2csc(S(=O)(=O)Nc3cccc(Cl)c3F)c2)n1`: 1330 s. Next, `CC(C)c1cc(N2CCN(c3ccccn3)CC2)n2c(nc3ccccc32)c1C#N`: 695 s; `Cc1ccc2c(C(=O)NCc3ccc(F)cc3F)cc(NC(=O)C(C)C)cc2n1`: 660 s.

Regarding `CCn1ccc2oc(C)c(C(=O)NCc3ccccc3Br)c2c1=O`, the RP-LC retention time amounted to 1020 s. Take `CC(C)N1C(=O)c2cccnc2Sc2cc(NC(=O)c3ccoc3)ccc21`: the RP-LC retention time was 773 s. Next, `CCc1cccc(NC(=O)C2(C)Oc3cccnc3N(C(C)C)C2=O)c1` (centres undefined): 1120 s; `O=[N+]([O-])c1ccc(-c2csc(Nc3ccc4c(c3)OCO4)n2)cc1`: 1110 s. As for `Cc1cccc(N2C(=O)CN(S(C)(=O)=O)CC2(C)C(=O)NCc2ccc(F)cc2)c1C` (centres undefined), the RP-LC retention time is 809 s. The result for `Cc1noc(C)c1CN1CC2(CCCCC2)CC1COc1ccncc1` (centres undefined) reads 637 s. The molecule `CCCNC(=O)c1cc(-c2ccncc2)cn1Cc1ccccc1C` yielded an RP-LC retention time of 690 s. For the molecule `COc1ccc(-c2ccc3nc(N4CCC(C(=O)N(C)C)CC4)sc3n2)cc1`, the RP-LC retention time worked out at 828 s. The result for `CCOCCCNC(=O)COc1nc(C)nc2onc(-c3ccccc3)c12` reads 846 s; that for `O=C(Nc1c(-c2ccccc2)nc2ccccn12)c1ccc(Cl)c([N+](=O)[O-])c1`, 696 s. The result for `COc1ccc(N2CCN(C(=O)c3ccc(-c4ccsc4)nc3)CC2)cc1` reads 1160 s. The result for `Cc1cnc(C(=O)NC2C[C@H]3CC[C@@H](C2)N3C(=O)c2ccoc2)cn1` (some centres undefined) reads 601 s. As for `CCC(=O)Nc1ccc(CCc2nc3ccc(C(=O)NCC4CCCO4)cc3[nH]2)cc1` (centres undefined), the RP-LC retention time is 592 s.

In the case of `COc1ccc(-c2nnc(SCC(=O)Nc3ccc(C)cc3Br)o2)cc1`, the RP-LC retention time stood at 986 s.

In turn, `COc1cc(C)c(Br)cc1S(=O)(=O)N1CCC(C(N)=O)CC1` showed an RP-LC retention time of 697 s. The result for `Cc1cc2nc(C(=O)Nc3cc(F)cc(F)c3)cc(C)n2n1` reads 1050 s; that for `COc1ccccc1N(CN1CCCC1=O)C(=O)COc1ccccc1`, 699 s. The result for `CCOc1ccc(NC(=O)C2CCCN(c3cnc4nccnc4c3)C2)cc1` (centres undefined) reads 689 s. The result for `CCNc1nc(C)cc(N2CCN(C(=O)Nc3cc(OC)ccc3OC)CC2)n1` reads 626 s. Regarding `CCc1ccc(NC(=O)Cn2cnc3nc(N4CCCC(C(=O)NC(C)C)C4)sc3c2=O)cc1` (centres undefined), the RP-LC retention time is 710 s. The result for `COc1ccc(CCNC(=O)c2ccco2)cc1OC` reads 642 s. Next, `CC1(C)CC(=O)c2cn(-c3ccc(Cl)cc3)c(=O)c(C(=O)N3CCOCC3)c2C1`: 757 s; `CN1c2ccccc2C(=O)NC12CCN(C(=O)Nc1cccc(F)c1)CC2`: 726 s. With `CS(=O)(=O)c1ccc(-c2cccc(NS(=O)(=O)c3ccc4c(c3)CCCC4)c2)nn1`, the RP-LC retention time was found to be 855 s.

`Cc1cccc(-c2nnc(Cc3nc(-c4ccccc4)no3)o2)c1` returned an RP-LC retention time of 1040 s. Consider `O=C(Nc1ccc2c(c1)OCCO2)N1CCC(N2CCN(Cc3ccc(F)cc3)C2=O)CC1`, for which the RP-LC retention time turned out to be 773 s.

Turning to `CCOc1ccc(-c2csc(Cc3nc(-c4ccc(C)cc4)no3)n2)cc1`, the RP-LC retention time amounted to 1310 s. Next, `CCOC(=O)CN1CCC(c2nnc(-c3ccc(F)cc3)o2)CC1`: 555 s; `COc1ccc(-c2cc3n(n2)CCCN(C(=O)c2cccn2C)C3)cc1`: 807 s. The result for `CN(C)CC(=O)N1CCC(Oc2nccnc2N(C)C)C1` (centres undefined) reads 539 s; that for `Cc1ccc(Cl)cc1NC(=O)CSc1ccc(N2CCCC(C(=O)NC3CC3)C2)nn1` (centres undefined), 698 s; that for `CC(C)Cn1c(-c2cccc(C(=O)NC(C)C)c2)nc2cccnc21`, 763 s. Next, `CCOc1ccc2c(c1)SC(CC(=O)Nc1ccccc1[N+](=O)[O-])C(=O)N2` (centres undefined): 822 s. On to `Cc1ccc(C)c(NC(=O)N2CCN(CCn3cnc4cccnc43)CC2)c1`, for which the RP-LC retention time was 596 s. Turning to `O=C(NCC1(c2cccs2)CCOCC1)c1cccs1`, the RP-LC retention time was determined as 705 s. `CCc1nnc(-c2ccc(NC(=O)c3ccc(S(=O)(=O)N(CC)CC)cc3)cc2)o1` registered an RP-LC retention time of 826 s. As to `CCOC(=O)c1cc(S(=O)(=O)N2CCCC2C(=O)N(Cc2ccco2)C2CCCC2)cn1C` (centres undefined), the RP-LC retention time stood at 992 s.

Molecule `CNC(=O)c1sc2nc(-c3ccccc3)c(NCCOC)n2c1C` returned an RP-LC retention time of 637 s. Next, `COc1ccc(-c2noc(-c3cccn4c(=O)c5ccccc5nc34)n2)cc1OC`: 994 s. The molecule `CCCCC(=O)Nc1nc(-c2ccc(C)cc2C)cs1` registered an RP-LC retention time of 1100 s.

For `COc1ccc(CN2C(=O)COC[C@H]2C(=O)NCc2ccc(Cl)cc2)c(OC)c1`, the RP-LC retention time came to 805 s. The result for `O=S(=O)(c1cccc(C(F)(F)F)c1)N1CCOCC1` reads 794 s; that for `COc1cccc(-n2nnc(-c3nc(-c4ccccc4OC)cs3)c2N)c1`, 1120 s; that for `CS(=O)(=O)N(C1CCOCC1)C1CN(C(=O)CCc2c[nH]c3ccccc23)C1`, 678 s. Regarding `Cc1nn(-c2ccc(Cl)cc2)c(C)c1S(=O)(=O)N1CCC(C(=O)NCc2cccs2)CC1`, the RP-LC retention time worked out at 950 s. Next, `CCc1cc(-c2csc(S(=O)(=O)N(Cc3ccccc3)C(C)C)c2)on1`: 1170 s; `Cc1nn(-c2ccc(F)cc2)c(C)c1S(=O)(=O)N1CCC(C(=O)NC(C)(C)C)CC1`: 888 s.

The values are drawn from the METLIN SMRT retention time set (Domingo-Almenara et al. 2019).
